Measurements published in patent publication US6949383B2 (priority 1998, dated 2005).

How the values were obtained:
dnaQ49 strain [1] = experiment: Ampicillin concentration-survival (colony forming) after mutagenesis runs; assay type: cell-based, Escherichia coli; settings: for AC: Ampicillin Concentration (maximum concentration for ampicillin resistance): dnaQ49 strain
wild type (dnaQ+ strain) = experiment: Ampicillin concentration-survival (colony forming) after mutagenesis runs, with or without MNNG; assay type: cell-based, Escherichia coli; settings: for Maximum concentration for ampicillin resistance: wild type and MNNG wild type
dnaQ = assay type: cell-based, Escherichia coli
Wild-Type = assay type: cell-based, Escherichia coli
Super-Amp-resistant dnaQ = assay type: cell-based, Escherichia coli
[2] = tested on: ampicillin-resistant Escherichia coli; settings: resistance due to plasmid; cited from earlier work
[3] = tested on: Super-Nali.-resisting dnaQ; experiment: Minimum growth inhibiting concentration (MIC) of antibiotic substances; assay type: cell-based, Escherichia coli
dnaQ49 strain [4] = experiment: Drug resistance reached by repeated mutagenesis and selection (Example 2); assay type: cell-based, Escherichia coli
dnaQ+ strain (wild type) = assay type: cell-based, Escherichia coli
[5] = tested on: Super-Stre.-resisting dnaQ; experiment: Minimum growth inhibiting concentration (MIC) of antibiotic substances; assay type: cell-based, Escherichia coli
[6] = mutagenesis treatment for 1 time
[7] = mutagenesis treatments for 2 times
[8] = mutagenesis treatments for 3 times
[9] = mutagenesis treatments for 4 times
[10] = mutagenesis treatments for 5 times
[11] = mutagenesis treatments for 6 times
[12] = mutagenesis treatments for 7 times
[13] = mutagenesis treatments for 8 times
[14] = mutagenesis treatments for 9 times
[15] = mutagenesis treatments for 10 times
[16] = mutagenesis treatments for 11 times
[17] = mutagenesis treatments for 12 times
[18] = mutagenesis treatments for 13 times
[19] = mutagenesis treatments for 14 times
[20] = mutagenesis treatments for 15 times
[21] = mutagenesis treatments for 16 times
[22] = mutagenesis treatments for 17 times
[23] = mutagenesis treatments for 18 times
[24] = mutagenesis treatments for 19 times
[25] = mutagenesis treatments for 20 times
[26] = mutagenesis treatments for 21 times
[27] = mutagenesis treatments for 22 times
[28] = mutagenesis treatments for 23 times

CC1(C)S[C@@H]2[C@H](NC(=O)[C@H](N)c3ccccc3)C(=O)N2[C@H]1C(=O)O [Ampicillin]
Ampicillin resistance of strain obtained (dnaQ49 strain [1]; another dnaQ49 strain, five mutagenesis treatments (FIG. 7)): about 10,000 g/ml | Ampicillin resistance from concentration-survival curve (dnaQ49 strain [1]; dnaQ49 strain before introduction of mutation, compared with wild type, 24° C., two days): slightly stronger ampicillin resistance than the wild type | AC: Ampicillin Concentration (maximum concentration for ampicillin resistance) (dnaQ49 strain [1]; 1st Run of mutagenesis): 30 µg/mL | AC: Ampicillin Concentration (maximum concentration for ampicillin resistance) (dnaQ49 strain [1]; 2nd Run of mutagenesis): 300 µg/mL | AC: Ampicillin Concentration (maximum concentration for ampicillin resistance) (dnaQ49 strain [1]; 3rd Run of mutagenesis): 1000 µg/mL | AC: Ampicillin Concentration (maximum concentration for ampicillin resistance) (dnaQ49 strain [1]; 4th Run of mutagenesis): 3000 µg/mL | AC: Ampicillin Concentration (maximum concentration for ampicillin resistance) (dnaQ49 strain [1]; 5th Run of mutagenesis): 6000 µg/mL | AC: Ampicillin Concentration (maximum concentration for ampicillin resistance) (dnaQ49 strain [1]; 5th Run of mutagenesis, listed as ampicillin): about 6,000 μg/ml | Ampicillin resistance of resistant microorganism obtained (wild type (dnaQ+ strain); MNNG-treated group, low-concentration treatment): 300 µg/mL | AC: Ampicillin Concentration (maximum concentration for ampicillin resistance) (wild type (dnaQ+ strain); Wild type (MNNG Concn 0), 1st Run): 3 µg/mL | AC: Ampicillin Concentration (maximum concentration for ampicillin resistance) (wild type (dnaQ+ strain); Wild type (MNNG Concn 0), 2nd Run): 10 µg/mL | AC: Ampicillin Concentration (maximum concentration for ampicillin resistance) (wild type (dnaQ+ strain); Wild type (MNNG Concn 0), 3rd Run): 10 µg/mL | AC: Ampicillin Concentration (maximum concentration for ampicillin resistance) (wild type (dnaQ+ strain); Wild type (MNNG Concn 0), 4th Run): 10 µg/mL | AC: Ampicillin Concentration (maximum concentration for ampicillin resistance) (wild type (dnaQ+ strain); Wild type (MNNG Concn 0), 5th Run): 60 µg/mL | AC: Ampicillin Concentration (maximum concentration for ampicillin resistance) (wild type (dnaQ+ strain); Wild type (MNNG Concn 1), 1st Run): 3 µg/mL | AC: Ampicillin Concentration (maximum concentration for ampicillin resistance) (wild type (dnaQ+ strain); Wild type (MNNG Concn 1), 2nd Run): 10 µg/mL | AC: Ampicillin Concentration (maximum concentration for ampicillin resistance) (wild type (dnaQ+ strain); Wild type (MNNG Concn 1), 3rd Run): 10 µg/mL | AC: Ampicillin Concentration (maximum concentration for ampicillin resistance) (wild type (dnaQ+ strain); Wild type (MNNG Concn 1), 4th Run): 10 µg/mL | AC: Ampicillin Concentration (maximum concentration for ampicillin resistance) (wild type (dnaQ+ strain); Wild type (MNNG Concn 1), 5th Run): 60 µg/mL | AC: Ampicillin Concentration (maximum concentration for ampicillin resistance) (wild type (dnaQ+ strain); Wild type (MNNG Concn 3), 1st Run): 3 µg/mL | AC: Ampicillin Concentration (maximum concentration for ampicillin resistance) (wild type (dnaQ+ strain); Wild type (MNNG Concn 3), 2nd Run): 30 µg/mL | AC: Ampicillin Concentration (maximum concentration for ampicillin resistance) (wild type (dnaQ+ strain); Wild type (MNNG Concn 3), 3rd Run): 100 µg/mL | AC: Ampicillin Concentration (maximum concentration for ampicillin resistance) (wild type (dnaQ+ strain); Wild type (MNNG Concn 3), 4th Run): 300 µg/mL | AC: Ampicillin Concentration (maximum concentration for ampicillin resistance) (wild type (dnaQ+ strain); Wild type (MNNG Concn 6), 1st Run): 3 µg/mL | AC: Ampicillin Concentration (maximum concentration for ampicillin resistance) (wild type (dnaQ+ strain); Wild type (MNNG Concn 6), 2nd Run): 6 µg/mL | AC: Ampicillin Concentration (maximum concentration for ampicillin resistance) (wild type (dnaQ+ strain); Wild type (MNNG Concn 6), 3rd Run): 10 µg/mL | AC: Ampicillin Concentration (maximum concentration for ampicillin resistance) (wild type (dnaQ+ strain); Wild type (MNNG Concn 6), 4th Run): 10 µg/mL | AC: Ampicillin Concentration (maximum concentration for ampicillin resistance) (wild type (dnaQ+ strain); Wild type (MNNG Concn 6), 5th Run): 30 µg/mL | AC: Ampicillin Concentration (maximum concentration for ampicillin resistance) (wild type (dnaQ+ strain); Wild type (MNNG Concn 10), 1st Run): 6 µg/mL | AC: Ampicillin Concentration (maximum concentration for ampicillin resistance) (wild type (dnaQ+ strain); Wild type (MNNG Concn 30), 1st Run): 3 µg/mL | Maximum concentration for ampicillin resistance (wild type (dnaQ+ strain); after first mutagenesis): 3˜6 μg/ml | Maximum concentration for ampicillin resistance (wild type (dnaQ+ strain); after second mutagenesis): 6˜30 μg/ml | Minimum growth inhibiting concentration (MIC) (dnaQ): 2 | Minimum growth inhibiting concentration (MIC) (Wild-Type): 1 | Minimum growth inhibiting concentration (MIC) (Super-Amp-resistant dnaQ): 2048 | Resistance concentration of ampicillin-resistant Escherichia coli reported up to now [2]: 1,500 μg/ml

CO/N=C(\C(=O)N[C@@H]1C(=O)N2C(C(=O)O)=C(COC(C)=O)CS[C@H]12)c1csc(N)n1 [Cefotaxime]
Minimum growth inhibiting concentration (MIC) (dnaQ): 0.0313 | Minimum growth inhibiting concentration (MIC) (Wild-Type): 0.0156 | Minimum growth inhibiting concentration (MIC) (Super-Amp-resistant dnaQ): 64 | Resistance of ampicillin-resistant dnaQ49 strain to other antibiotic substances (MIC investigation) (Super-Amp-resistant dnaQ): strong resistance

O=C(N[C@H](CO)[C@H](O)c1ccc([N+](=O)[O-])cc1)C(Cl)Cl [Chloramphenicol]
Minimum growth inhibiting concentration (MIC) (dnaQ): 1 | Minimum growth inhibiting concentration (MIC) (Wild-Type): 0.5 | Minimum growth inhibiting concentration (MIC) (Super-Amp-resistant dnaQ): 0.5

CCn1cc(C(=O)O)c(=O)c2ccc(C)nc21 [Nalidixic acid]
Minimum growth inhibiting concentration (MIC) (dnaQ): 1 | Minimum growth inhibiting concentration (MIC) (Wild-Type): 2 | Minimum growth inhibiting concentration (MIC) (Super-Amp-resistant dnaQ): 0.5 | Minimum growth inhibiting concentration (MIC) [3]: 2048 | Concentration of Nalidixic Acid (dnaQ49 strain [4]; [6]): 1 µg/mL | Concentration of Nalidixic Acid (dnaQ49 strain [4]; [7]): 10 µg/mL | Concentration of Nalidixic Acid (dnaQ49 strain [4]; [8]): 100 µg/mL | Concentration of Nalidixic Acid (dnaQ49 strain [4]; [9]): 200 µg/mL | Concentration of Nalidixic Acid (dnaQ49 strain [4]; [10]): 400 µg/mL | Concentration of Nalidixic Acid (dnaQ49 strain [4]; [11]): 600 µg/mL | Concentration of Nalidixic Acid (dnaQ49 strain [4]; [12]): 1000 µg/mL | Concentration of Nalidixic Acid (dnaQ49 strain [4]; [13]): 1100 µg/mL | Concentration of Nalidixic Acid (dnaQ49 strain [4]; [14]): 1200 µg/mL | Concentration of Nalidixic Acid (dnaQ49 strain [4]; [15]): 1300 µg/mL | Concentration of Nalidixic Acid (dnaQ49 strain [4]; [16]): 1400 µg/mL | Concentration of Nalidixic Acid (dnaQ49 strain [4]; [17]): 1600 µg/mL | Concentration of Nalidixic Acid (dnaQ49 strain [4]; [18]): 1800 µg/mL | Concentration of Nalidixic Acid (dnaQ49 strain [4]; [19]): 2000 µg/mL | Concentration of Nalidixic Acid (dnaQ49 strain [4]; [20]): 2500 µg/mL | Concentration of Nalidixic Acid (dnaQ49 strain [4]; [21]): 3000 µg/mL | Concentration of Nalidixic Acid (dnaQ49 strain [4]; [22]): 4000 µg/mL | Concentration of Nalidixic Acid (dnaQ49 strain [4]; [23]): 5000 µg/mL | Concentration of Nalidixic Acid (dnaQ49 strain [4]; [24]): 6000 µg/mL | Concentration of Nalidixic Acid (dnaQ49 strain [4]; [25]): 6200 µg/mL | Concentration of Nalidixic Acid (dnaQ49 strain [4]; [26]): 6400 µg/mL | Concentration of Nalidixic Acid (dnaQ49 strain [4]; [27]): 6600 µg/mL | Concentration of Nalidixic Acid (dnaQ49 strain [4]; [28]): 6800 µg/mL | Concentration of Nalidixic Acid (dnaQ49 strain [4]; mutagenesis treatments for 24 times, listed as Nalidixic Acid): 7000 µg/mL | Concentration of Nalidixic Acid (dnaQ49 strain [4]; mutagenesis treatments for 24 times, listed as nalidixic acid): 7,000 μg/ml | Growth of dnaQ+ strain (wild type) in the presence of drug (dnaQ+ strain (wild type)): *3) dnaQ+ strain (wild type) did not grow in the presence of 10 μg/ml of nalidixic acid.

CO[C@H]1/C=C/O[C@@]2(C)Oc3c(C)c(O)c4c(O)c(c(/C=N/N5CCN(C)CC5)c(O)c4c3C2=O)NC(=O)/C(C)=C\C=C\[C@H](C)[C@H](O)[C@@H](C)[C@@H](O)[C@@H](C)[C@H](OC(C)=O)[C@@H]1C [Rifampicin]
Minimum growth inhibiting concentration (MIC) (dnaQ): 8 | Minimum growth inhibiting concentration (MIC) (Wild-Type): 4 | Minimum growth inhibiting concentration (MIC) (Super-Amp-resistant dnaQ): 2

[H]/N=C(/N)N[C@H]1[C@H](O)[C@@H](O)[C@H](O[C@@H]2O[C@@H](C)[C@](O)(C=O)[C@H]2O[C@@H]2O[C@@H](CO)[C@H](O)[C@@H](O)[C@@H]2NC)[C@@H](N/C(N)=N\[H])[C@@H]1O [Streptomycin]
Minimum growth inhibiting concentration (MIC) (dnaQ): 1 | Minimum growth inhibiting concentration (MIC) (Wild-Type): 1 | Minimum growth inhibiting concentration (MIC) (Super-Amp-resistant dnaQ): 0.5 | Minimum growth inhibiting concentration (MIC) [5]: 2048 | Concentration of Streptomycin (dnaQ49 strain [4]; [6]): 1 µg/mL | Concentration of Streptomycin (dnaQ49 strain [4]; [7]): 10 µg/mL | Concentration of Streptomycin (dnaQ49 strain [4]; [8]): 100 µg/mL | Concentration of Streptomycin (dnaQ49 strain [4]; [9]): 1000 µg/mL | Concentration of Streptomycin (dnaQ49 strain [4]; [10]): 3000 µg/mL | Concentration of Streptomycin (dnaQ49 strain [4]; [11]): 4000 µg/mL | Concentration of Streptomycin (dnaQ49 strain [4]; [12]): 6000 µg/mL | Concentration of Streptomycin (dnaQ49 strain [4]; [13]): 8000 µg/mL | Concentration of Streptomycin (dnaQ49 strain [4]; [14]): 9000 µg/mL | Concentration of Streptomycin (dnaQ49 strain [4]; [15]): 10000 µg/mL | Concentration of Streptomycin (dnaQ49 strain [4]; [16]): 12000 µg/mL | Concentration of Streptomycin (dnaQ49 strain [4]; [17]): 14000 µg/mL | Concentration of Streptomycin (dnaQ49 strain [4]; [18]): 16000 µg/mL | Concentration of Streptomycin (dnaQ49 strain [4]; [19]): 17000 µg/mL | Concentration of Streptomycin (dnaQ49 strain [4]; [20]): 18000 µg/mL | Concentration of Streptomycin (dnaQ49 strain [4]; [21]): 19000 µg/mL | Concentration of Streptomycin (dnaQ49 strain [4]; [22]): 20000 µg/mL | Concentration of Streptomycin (dnaQ49 strain [4]; [23]): 21000 µg/mL | Concentration of Streptomycin (dnaQ49 strain [4]; [24]): 22000 µg/mL | Concentration of Streptomycin (dnaQ49 strain [4]; [25]): 23000 µg/mL | Concentration of Streptomycin (dnaQ49 strain [4]; [26]): 24000 µg/mL | Concentration of Streptomycin (dnaQ49 strain [4]; [27]): 25000 µg/mL | Concentration of Streptomycin (dnaQ49 strain [4]; [28]): 26000 µg/mL | Concentration of Streptomycin (dnaQ49 strain [4]; mutagenesis treatments for 23 times, listed as streptomycin): 26,000 μg/ml | Growth of dnaQ+ strain (wild type) in the presence of drug (dnaQ+ strain (wild type)): *3) dnaQ+ strain (wild type) did not grow in the presence of 10 μg/ml of streptomycin.
